Assay results published in US20110086914A1, “Methods for Treating Traumatic Brain Injury” (priority 2009, published 2011).

Tests used:
[1] = Serum phospholipid fatty acid levels after DHA supplementation following brain trauma; type: in vivo, Sprague-Dawley rats; settings: for increased levels of serum DHA over initial levels: dietary, serum phospholipids
Experimental: (§1) DHA supplementation and serum level monitoring. The four groups received dietary supplementation with DHA (Martek, Columbia, Md.). Two of the four groups received dietary supplementation DHA daily in the following amounts: Group 1, 10 mg/kg/day; Group 2, 40 mg/kg/day. Groups 3 served as an unsupplemented control, and Group 4 underwent sham injury and received no supplementation. Each group received rat chow ad lib and were housed in a small animal vivarium under veterinary staff supervision. Fatty acid blood testing was performed prior to the injury and at the end of the 30 days of DHA supplementation by analyzing the isolated serum phospholipids (including DHA, EPA and Arachidonic acid) from 50 microliter blood samples using a previously described method (Holub and Skeaff, Methods Enzymol. 141:234-44 (1987); Nutrasource Diagnostics, University of Guelph, Ontario, Canada).

[2] = test system: diffuse axonal injury in rats (impact acceleration injury); assay: Impact acceleration injury model in rats: APP / active caspase-3 positive axons by immunohistochemistry; type: in vivo, Sprague-Dawley rats; settings: for APP positive axons: 30 days post injury, p<0.05 versus 148 in unsupplemented animals (sham 6)
Source text: (§2) Method. The impact acceleration injury model in rats described in Marmarou et al., J Neurosurg. 80:291-300 (1994), incorporated herein by reference, was used for the study. Four groups of ten (n=40) of adult male Sprague-Dawley rats were subjected to an impact acceleration injury resulting in reproducible severe traumatic brain injury. Rats weighing between 350 and 400 g received induction anesthesia and subsequently maintained on inhaled anesthetic using a modified medical anesthesia machine. The animals were shaved and prepared in sterile fashion for surgery, followed by subcutaneous injection of local anesthetic into the planned incision site. A 3 cm midline incision in the scalp was made, periosteal membranes separated, exposing bregma and lambda. A metal disk 10 mm in diameter and 3 mm thick was attached to the skull with cyanoacrylate and centered between bregma and lambda. The animal was placed prone on a foam bed with the metal disk directly under a plexiglas tube. A 450 g brass weight was dropped through the tube from a height of 2 meters striking the disk. The animal was then ventilated on 100% O2 while the skull inspected and the incision repaired. When the animal recovered spontaneous respirations, anesthesia was discontinued and the animal returned to its cage for postoperative observation (Marmarou et al., supra). All procedures involving live animals were approved by the Institutional Animal Care and Use Committee of West Virginia University, and were performed according to the principles of the Guide for the Care and Use of Laboratory Animals, published by the Institute of Laboratory Resources, National Research Council (NIH publication 85-23-2985).
as §1
Tissue Preparation and Immunohistochemical Labeling. Following 30 day post-injury, surviving animals were euthanized with a lethal dose injection of 0.5 ml Ketamine and 0.5 ml Xylazine. […]

[3] = Tolerability of daily oral supplementation in the impact acceleration model; type: in vivo; settings: 10 or 40 mg/kg/day
Source text: as §2, with “All procedures involving live animals were approved by the Institutional Animal Care and Use Committee of West Virginia University, and were performed according to the principles of the Guide for the Care and Use of Laboratory Animals, published by the Institute of Laboratory Resources, National Research Council (NIH publication 85-23-2985).” left out

With `CC/C=C\C/C=C\C/C=C\C/C=C\C/C=C\C/C=C\CCC(=O)O` [DHA, (all-Z)-4,7,10,13,16,19-docosahexaenoic acid] as the compound, how does the “decrease in AA:EPA ratio, a marker of inflammation” value ([1]; 10 mg/kg/day DHA, 30 days after brain trauma, serum) read?
The value was 72%.

And the “increased levels of serum DHA over initial levels” value ([1]; 10 mg/kg/day DHA, 30 days after brain trauma)?
The value was 123%.

What about the “increased levels of serum DHA over initial levels” value ([1]; 40 mg/kg/day DHA, 30 days after brain trauma) of the same compound?
Its value is 176%.

And the “total EPA and DHA in serum phospholipids compared to the sham animals” value ([1]; end of supplementation period, 10 and 40 mg/kg/day)?
Its value is “dose-response effect in the increase”.

What about the “serum arachidonic acid levels” value ([1]; supplemented animals, end of supplementation period) of the same compound?
The value was “non-significant increase”.

What about the APP positive axons ([2]; 10 mg/kg/day DHA, corticospinal tract and medial lemnisci) of the same compound?
Its APP positive axons is 26 axons per mm^2.

And the APP positive axons ([2]; 40 mg/kg/day DHA, corticospinal tract and medial lemnisci)?
The APP positive axons was 20 axons per mm^2.

What about the “APP labeling of axons, qualitative” value ([2]; 10 or 40 mg/kg/day DHA, corticospinal tract and medial lemnisci) of the same compound?
The value was “only rare APP positive axons, similar to sham injured animals”.

What about the “active caspase-3 positive axons” value ([2]; 10 or 40 mg/kg/day oral, 30 days following injury, data not shown) of the same compound?
Its value is “significant decrease”.

And the “observed untoward effects of daily oral supplementation” value [3]?
The value was “without any observed untoward effects”.
